Reference: patent US20210085640A1, “ACYLATED CATECHIN POLYPHENOLS AND METHODS OF THEIR USE FOR THE TREATMENT OF CANCER” (Flagship Pioneering Innovations V, Inc., priority 2018, published 2021)

Key:
Format in all cases: cell-based
[1] = test system: HCT 116 colorectal cancer cells; experiment: Cancer cell survival (CellTiter-Glo), HCT 116; details: HCT 116 cells, 72 h
Protocol: (§1) The cells were prepared as follows. Cells were harvested during logarithmic growth, counted, and adjusted to 4.44×10^4 cells/mL with culture media. 90 μL of suspended cells were added to wells of 96-well plates for a final cell count of 4×10^3 cells/well. The plates were incubated overnight at 37 C with 5% CO2 overnight.
(§2) The test compounds were assayed as follows. Compound solutions were mixed at 10× final concentrations in cell media: 1 μM-10 mM (fatty acids) or 100 nM-1 mM (all other compounds). […] of solution was added to each well of cells in triplicate for each concentration. Well plates were incubated for 72 h at 37 C with 5% CO2 and then assayed with CellTiter-Glo by adding 50 μL of CTG solution to each well. Cells were lysed by shaking on an orbital shaker for 5 min. Plates were incubated at room temperature for 20 min and then each well's luminescence was measured. The surviving percentage of cells was determined as:
(§3) Survival %=(LumTest article−LumMedium control)/(LumNone treated−LumMedium control)[…]
(§4) Cytotoxicity was assessed at nine concentration levels for each compound and the 50% inhibition concentration (IC50) determined for each compound.

[2] = test system: PC-3 prostate cancer cells; experiment: Cancer cell survival (CellTiter-Glo), PC-3; details: PC-3 cells, 72 h
Protocol: as §1, §2, §3, §4

MCF7 breast cancer cells = experiment: Cancer cell survival (CellTiter-Glo), MCF7; details: 72 h
Protocol: as §1, §2, §3, §4

AGS stomach cancer cells = experiment: Cancer cell survival (CellTiter-Glo), AGS; set-up: Cell survival at given concentration: unit not given here
Protocol: as §1, §2, §3, §4

T24 bladder cancer cells = experiment: Cancer cell survival (CellTiter-Glo), T24; details: 72 h
Protocol: as §1, §2, §3
Efficacy was assessed at nine concentration levels for each compound and the 50% inhibition concentration (IC50) determined for each compound.

[3] = test system: Daudi lymphoma cancer cells; experiment: Cancer cell survival (CellTiter-Glo), Daudi; details: 72 h
Protocol: as §1, §2, §3
Activity was assessed at nine concentration levels for each compound and the 50% inhibition concentration (IC50) determined for each compound.

A-431 skin cancer cells = experiment: Cancer cell survival (CellTiter-Glo), A-431; set-up: Cell survival at given concentration: unit not given here; details: A-431 cells, 72 h
Protocol: as §1, §2, §3, §4

A549 lung cancer cells = experiment: Cancer cell survival (CellTiter-Glo), A549; details: 72 h
Protocol: as §1, §2, §3, §4

CC(O)CC(=O)O (stereo not drawn) [beta-hydroxybutyrate]
1.04: Cell survival at given concentration (AGS stomach cancer cells; 100 μM, Table 10.2) | Cell survival at given concentration (AGS stomach cancer cells; 1 mM)
0.90: Cell survival at given concentration ([1]; 10 mM)
1.03: Cell survival at given concentration ([1]; 317 μM) | Cell survival at given concentration ([2]; 32 μM, Table 8.2) | Cell survival at given concentration ([2]; 100 μM, Table 8.2) | Cell survival at given concentration ([2]; 317 μM) | Cell survival at given concentration (MCF7 breast cancer cells; 100 μM, Table 5.2) | Cell survival at given concentration (AGS stomach cancer cells; 3 μM, Table 10.2) | Cell survival at given concentration (AGS stomach cancer cells; 317 μM) | Cell survival at given concentration (AGS stomach cancer cells; 3 mM) | Cell survival at given concentration (A-431 skin cancer cells; 10 μM, Table 9.2) | Cell survival at given concentration (A-431 skin cancer cells; 32 μM, Table 9.2) | Cell survival at given concentration (A-431 skin cancer cells; 100 μM, Table 9.2) | Cell survival at given concentration (A-431 skin cancer cells; 3 mM)
1.05: Cell survival at given concentration (A-431 skin cancer cells; 317 μM) | Cell survival at given concentration (A-431 skin cancer cells; 1 mM) | Cell survival at given concentration (A549 lung cancer cells; 100 μM, Table 7.2)
1.02: Cell survival at given concentration (AGS stomach cancer cells; 32 μM, Table 10.2) | Cell survival at given concentration (T24 bladder cancer cells; 317 μM) | Cell survival at given concentration ([3]; 100 μM, Table 4.2) | Cell survival at given concentration (A-431 skin cancer cells; 3 μM, Table 9.2) | Cell survival at given concentration (A549 lung cancer cells; 32 μM, Table 7.2)
0.96: Cell survival at given concentration ([1]; 3 mM) | Cell survival at given concentration (T24 bladder cancer cells; 100 μM, Table 3.2) | Cell survival at given concentration ([3]; 3 mM)
0.92: Cell survival at given concentration (MCF7 breast cancer cells; 3 mM)
0.99: Cell survival at given concentration ([1]; 10 μM, Table 6.2) | Cell survival at given concentration (T24 bladder cancer cells; 1 mM) | Cell survival at given concentration (T24 bladder cancer cells; 3 mM) | Cell survival at given concentration ([3]; 3 μM, Table 4.2) | Cell survival at given concentration ([3]; 317 μM) | Cell survival at given concentration ([3]; 1 mM) | Cell survival at given concentration (A549 lung cancer cells; 3 μM, Table 7.2)
> 10 mM: IC50 (A549 lung cancer cells; Table 7.2)
1.00: Cell survival at given concentration ([1]; 3 μM, Table 6.2) | Cell survival at given concentration ([1]; 100 μM, Table 6.2) | Cell survival at given concentration ([2]; 3 μM, Table 8.2) | Cell survival at given concentration ([2]; 3 mM) | Cell survival at given concentration (MCF7 breast cancer cells; 1 μM, Table 5.2) | Cell survival at given concentration (MCF7 breast cancer cells; 3 μM, Table 5.2) | Cell survival at given concentration (MCF7 breast cancer cells; 10 μM, Table 5.2) | Cell survival at given concentration (AGS stomach cancer cells; 10 mM) | Cell survival at given concentration (T24 bladder cancer cells; 3 μM, Table 3.2) | Cell survival at given concentration (T24 bladder cancer cells; 10 mM) | Cell survival at given concentration (A549 lung cancer cells; 1 μM, Table 7.2)
1.01: Cell survival at given concentration ([1]; 1 mM) | Cell survival at given concentration ([2]; 1 μM, Table 8.2) | Cell survival at given concentration ([2]; 10 μM, Table 8.2) | Cell survival at given concentration ([2]; 1 mM) | Cell survival at given concentration (MCF7 breast cancer cells; 32 μM, Table 5.2) | Cell survival at given concentration (MCF7 breast cancer cells; 317 μM) | Cell survival at given concentration (AGS stomach cancer cells; 1 μM, Table 10.2) | Cell survival at given concentration (AGS stomach cancer cells; 10 μM, Table 10.2) | Cell survival at given concentration ([3]; 1 μM, Table 4.2) | Cell survival at given concentration (A-431 skin cancer cells; 1 μM, Table 9.2) | Cell survival at given concentration (A-431 skin cancer cells; 10 mM) | Cell survival at given concentration (A549 lung cancer cells; 10 μM, Table 7.2) | Cell survival at given concentration (A549 lung cancer cells; 317 μM) | Cell survival at given concentration (A549 lung cancer cells; 1 mM) | Cell survival at given concentration (A549 lung cancer cells; 3 mM)
0.97: Cell survival at given concentration ([2]; 10 mM) | Cell survival at given concentration (MCF7 breast cancer cells; 1 mM) | Cell survival at given concentration (T24 bladder cancer cells; 1 μM, Table 3.2)
0.95: Cell survival at given concentration (T24 bladder cancer cells; 32 μM, Table 3.2)
0.98: Cell survival at given concentration ([1]; 1 μM, Table 6.2) | Cell survival at given concentration ([1]; 32 μM, Table 6.2) | Cell survival at given concentration (T24 bladder cancer cells; 10 μM, Table 3.2) | Cell survival at given concentration ([3]; 10 μM, Table 4.2) | Cell survival at given concentration ([3]; 32 μM, Table 4.2) | Cell survival at given concentration (A549 lung cancer cells; 10 mM)
0.91: Cell survival at given concentration (MCF7 breast cancer cells; 10 mM) | Cell survival at given concentration ([3]; 10 mM)
